Like-named read-outs stand apart in the source and are kept apart here. Blank lines part the entries; values can stand above or below the molecule they belong to.
Experiments:
human FGF-R1 = human FGF-R1 (Homo sapiens, UniProt P11362, C488A/C584S/L457V); test: FGF-R spectrophotometric assay; format: biochemical; conditions: Table 1; compound concentration 1 µM; read-out: FGF-P* (% inhibition)
Method: The spectrophotometric assay was carried out as described above for VEGF-R2, except for the following changes in concentration: FGF-R = 50 nM, ATP = 2 mM, and poly(E4Y1) =15 mM.

LCK tyrosine kinase = LCK tyrosine kinase (Homo sapiens, UniProt P06239, C224D/P223M); test: LCK spectrophotometric assay; format: biochemical; conditions: Table 1; compound concentration 1 µM; read-out: Lck-P* (% inhibition)
Sequence of LCK tyrosine kinase (P06239 223-509 P223M/C224D): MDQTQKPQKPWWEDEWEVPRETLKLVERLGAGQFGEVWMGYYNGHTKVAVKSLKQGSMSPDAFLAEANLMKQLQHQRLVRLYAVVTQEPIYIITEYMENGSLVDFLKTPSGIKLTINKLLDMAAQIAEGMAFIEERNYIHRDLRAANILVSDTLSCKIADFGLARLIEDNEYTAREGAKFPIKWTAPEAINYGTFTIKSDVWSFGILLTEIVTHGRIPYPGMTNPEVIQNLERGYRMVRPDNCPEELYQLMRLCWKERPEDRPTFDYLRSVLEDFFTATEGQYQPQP
Method: The spectrophotometric assay was carried out as described above for VEGF-R2, except for the following changes in concentration: LCK = 60 nM, MgCl2 = 0 mM, poly(E4Y1) = 20 mM.

[1] = test system: lung cancer cells (line MV522); test: Cancer cell proliferation (MV522) assay; format: cell-based; conditions: MV522; Table 1; read-out: MV522 IC50
In short: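 MTT reduction read-out was taken 72 h after addition of test agents, with no prior serum starvation. Cells were plated beforehand at two thousand per well in RPMI1640 containing 10% FBS and 2 mM glutamine and allowed one day to adhere.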

[2] = biological target: T1, unphosphorylated VEGF-R2Δ50 (Homo sapiens, UniProt P35968, DEL940-989/E990V); test: biochemical
T1 sequence (P35968 with tags, fused parts or gaps DEL940-989/E990V limits assumed): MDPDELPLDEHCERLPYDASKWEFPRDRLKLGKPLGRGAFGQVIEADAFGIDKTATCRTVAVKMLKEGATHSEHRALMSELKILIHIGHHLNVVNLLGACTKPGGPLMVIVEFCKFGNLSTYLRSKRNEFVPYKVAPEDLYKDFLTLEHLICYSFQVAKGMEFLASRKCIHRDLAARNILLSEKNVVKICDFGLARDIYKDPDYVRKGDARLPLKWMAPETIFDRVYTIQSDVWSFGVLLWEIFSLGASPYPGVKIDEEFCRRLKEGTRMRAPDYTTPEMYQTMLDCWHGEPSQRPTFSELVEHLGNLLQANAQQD

[3] = biological target: phosphorylated VEGF-R2Δ50 (Homo sapiens, UniProt P35968, DEL940-989/E990V); test: biochemical; conditions: for inhibition at 1 µM: read-out: FLVK-P* (% inhibition); for inhibition at 0.05 µM: read-out: FLVK -P** (% inhibition)
Sequence of phosphorylated VEGF-R2Δ50 (P35968 with tags, fused parts or gaps DEL940-989/E990V limits assumed): as above

human CHK1 (FL-CHK1) = biological target: T2, human CHK1 (FL-CHK1) (Homo sapiens, UniProt O14757); test: CHK1 coupled spectrophotometric assay; format: biochemical; conditions: read-out: CHK1* (% inhibition)
T2 construct: C-terminally His-tagged full-length human CHK1 (FL-CHK1) was expressed using the baculovirus/insect cell system; made in house; host or cells: baculovirus/insect cell system
T2 sequence (O14757 1-476): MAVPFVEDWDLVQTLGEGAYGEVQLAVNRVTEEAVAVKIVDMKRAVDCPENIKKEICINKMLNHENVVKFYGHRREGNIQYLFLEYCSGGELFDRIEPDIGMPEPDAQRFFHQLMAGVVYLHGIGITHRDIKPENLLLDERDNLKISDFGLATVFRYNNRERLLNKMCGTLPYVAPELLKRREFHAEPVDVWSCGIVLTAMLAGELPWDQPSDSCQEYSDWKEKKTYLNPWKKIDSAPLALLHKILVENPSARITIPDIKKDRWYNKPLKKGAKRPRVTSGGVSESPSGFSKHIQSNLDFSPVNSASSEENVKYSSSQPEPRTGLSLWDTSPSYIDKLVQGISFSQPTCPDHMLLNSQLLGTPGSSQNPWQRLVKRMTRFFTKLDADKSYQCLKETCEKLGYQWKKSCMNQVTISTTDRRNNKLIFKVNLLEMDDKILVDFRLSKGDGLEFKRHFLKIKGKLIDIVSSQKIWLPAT
In short: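 His-tagged full-length human CHK1 from baculovirus/insect cells, 10 nM, phosphorylating Syntide-2. ADP formation coupled via PK/LDH with PEP to NADH oxidation, followed as absorbance decrease at 340 nm. Ki from initial rates at varying compound concentrations.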

[4] = biological target: T1, unphosphorylated VEGF-R2Δ50; conditions: Table 1; compound concentration 50 nM
CDK1 = CDK1 (Homo sapiens, UniProt P06493); test: CDK1 assay (Table 3); format: biochemical; conditions: compound concentration 1 µM, NI = no significant inhibition
Sequence of CDK1 (P06493 whole entry, species assumed, the tested form may be a part): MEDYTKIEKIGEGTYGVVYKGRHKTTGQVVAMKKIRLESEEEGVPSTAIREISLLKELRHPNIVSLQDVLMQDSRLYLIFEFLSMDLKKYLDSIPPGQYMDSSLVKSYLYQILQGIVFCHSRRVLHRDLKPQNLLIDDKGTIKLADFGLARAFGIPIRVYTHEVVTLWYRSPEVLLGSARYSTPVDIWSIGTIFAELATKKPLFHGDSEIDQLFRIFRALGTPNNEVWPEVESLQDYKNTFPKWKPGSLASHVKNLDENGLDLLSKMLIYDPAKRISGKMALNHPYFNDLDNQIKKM
Sequence of CDK1 (P14635 whole entry partner, species assumed, the tested form may be a part): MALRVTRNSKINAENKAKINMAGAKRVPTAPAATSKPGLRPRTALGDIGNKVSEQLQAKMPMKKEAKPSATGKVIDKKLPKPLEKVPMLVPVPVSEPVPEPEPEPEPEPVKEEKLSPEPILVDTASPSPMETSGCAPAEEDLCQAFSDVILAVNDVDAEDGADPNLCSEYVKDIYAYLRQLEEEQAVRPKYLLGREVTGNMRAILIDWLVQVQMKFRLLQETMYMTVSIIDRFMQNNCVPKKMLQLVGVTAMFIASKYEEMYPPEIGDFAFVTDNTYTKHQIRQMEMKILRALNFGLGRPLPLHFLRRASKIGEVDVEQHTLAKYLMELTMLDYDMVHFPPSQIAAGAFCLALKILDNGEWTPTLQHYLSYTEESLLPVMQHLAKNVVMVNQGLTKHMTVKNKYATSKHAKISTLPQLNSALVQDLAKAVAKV

CDK2/Cyclin A complex = CDK2/Cyclin A complex (Homo sapiens, UniProt P24941); test: CDK2/Cyclin A assay ([32P]ATP incorporation into Rb fragment); format: biochemical; conditions: read-out: CDK2 * (% inhibition)
CDK4/Cyclin D3 complex = CDK4/Cyclin D3 complex (Homo sapiens, UniProt P11802); test: biochemical; conditions: read-out: CDK4 * (% inhibition)
Sequence of CDK4/Cyclin D3 complex (P11802 whole entry): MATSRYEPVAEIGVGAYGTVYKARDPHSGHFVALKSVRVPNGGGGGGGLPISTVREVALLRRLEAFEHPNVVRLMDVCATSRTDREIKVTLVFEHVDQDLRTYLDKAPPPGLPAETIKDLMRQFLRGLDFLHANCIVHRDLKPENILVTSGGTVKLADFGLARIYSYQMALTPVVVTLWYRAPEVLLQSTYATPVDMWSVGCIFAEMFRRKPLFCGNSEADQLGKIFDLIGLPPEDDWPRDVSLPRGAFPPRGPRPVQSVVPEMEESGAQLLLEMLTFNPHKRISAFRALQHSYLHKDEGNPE
Sequence of CDK4/Cyclin D3 complex (P30281 whole entry partner): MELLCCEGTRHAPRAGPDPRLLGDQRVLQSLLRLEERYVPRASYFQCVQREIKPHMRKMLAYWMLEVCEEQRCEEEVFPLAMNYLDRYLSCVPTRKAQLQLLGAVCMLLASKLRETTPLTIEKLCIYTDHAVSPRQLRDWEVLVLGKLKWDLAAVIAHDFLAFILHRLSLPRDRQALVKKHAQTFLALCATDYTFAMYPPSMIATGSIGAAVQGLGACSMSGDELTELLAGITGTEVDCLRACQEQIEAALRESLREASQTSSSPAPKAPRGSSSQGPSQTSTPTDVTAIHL

human FAK (FAKcd409) = biological target: T3, human FAK (FAKcd409) (Homo sapiens, UniProt Q05397, P410T); test: FAK fluorescence polarization assay; format: biochemical; conditions: read-out: % Inhibition @ 1 µM FAK
T3 construct: comprises residues methionine 409 to glutamate 689; made in house; host or cells: baculovirus vector expression system (insect cells)
T3 sequence (Q05397 409-689 P410T): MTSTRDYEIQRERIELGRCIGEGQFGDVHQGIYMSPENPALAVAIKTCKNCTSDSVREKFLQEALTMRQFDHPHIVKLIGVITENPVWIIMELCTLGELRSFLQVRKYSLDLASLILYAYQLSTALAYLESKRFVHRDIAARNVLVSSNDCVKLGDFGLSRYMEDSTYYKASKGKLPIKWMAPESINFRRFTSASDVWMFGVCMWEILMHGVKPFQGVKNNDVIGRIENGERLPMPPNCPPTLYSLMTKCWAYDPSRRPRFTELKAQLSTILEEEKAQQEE
Method: FAK Construct for Assay. The catalytic domain of human FAK (FAKcd409) was expressed using the baculovirus vector expression system. […] The protein was purified using classical chromatography techniques.
FAK HTS utilized the fluorescence polarization assay provided by LJL Biosystems. The kinase reaction contained: 100mM Hepes pH 7.5, 10mM MgCl2, 1mM DTT, 1mM ATP, and 1mg/ml poly Glu-Tyr (4: 1). The reaction is initiated by the addition of 5nM FAKcd409. The reaction is terminated by the addition of EDTA followed by addition of fluor-labelled peptide and anti-phosphotyrosine antibody, both provided by LJL Biosystems. Inhibition results are read on a Analyst (LJL) detector.

in vitro = in vitro ADME, human; conditions: 2 h
In short: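 HLM diluted to 5 mg/mL in 100 mM KPO4, preincubated 10 min at 37 °C with NADPH-regenerating system. Compound (5 µM final) incubated at 37 °C in triplicate, sampled at 0 and 2 h into ice-cold acetonitrile, then LC-MS analysis.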

in vivo = conditions: mouse, plasma, pH 2.3
[5] = test system: human umbilical vein endothelial cells (HUVEC); test: HUVEC proliferation assay (VEGF-stimulated, MTT); format: cell-based; conditions: Homo sapiens, HUVEC, Table 1
[6] = test system: VEGF dependent retinal vascular development; test: In vivo assay of retinal vascular development in neonatal rats; design: species or system rat; conditions: vehicle PEG/water 70:30
In short: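 Neonatal rats given compound by intravitreal injection, vehicle usually 50% PEG 400/50% 300 mM sucrose, with vehicle in contralateral eye. Retinas removed six days later, ADPase-stained and flat-mounted; stained vessel area quantified by imaging and expressed as percent regression versus vehicle eye.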

[7] = test system: VEGF dependent retinal neovascularization; test: Neonatal rat model of retinopathy of prematurity; format: in vivo; conditions: Model ROP, intravitreal, vehicle PEG/water 70:30
[8] = Table 3, read-out: CDK1* (% inhibition)
[9] = + albumin, read-out: HUVEC + albumin IC50
[10] = human liver microsomes, 5 µM test compound, 37 °C

Sequence of human FGF-R1 (P11362 456-766 L457V/C488A/C584S): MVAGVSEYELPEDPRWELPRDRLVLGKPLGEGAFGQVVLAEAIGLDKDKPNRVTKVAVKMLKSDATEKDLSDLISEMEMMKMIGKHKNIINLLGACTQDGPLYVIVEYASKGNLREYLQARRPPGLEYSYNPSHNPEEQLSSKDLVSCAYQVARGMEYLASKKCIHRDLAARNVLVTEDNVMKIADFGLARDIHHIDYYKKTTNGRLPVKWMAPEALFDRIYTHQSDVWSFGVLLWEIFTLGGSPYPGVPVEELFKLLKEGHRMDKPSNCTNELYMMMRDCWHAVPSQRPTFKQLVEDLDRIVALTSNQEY

inhibition at 1 µM (human FGF-R1): 88% | inhibition at 1 µM (LCK tyrosine kinase): 36% | IC50 [1]: 3800 nM | Ki [2]: 0.72 nM | Ki [3]: 4.7 nM
Compound: CC(=O)NC(C(=O)Nc1cccc(C(=O)c2ccc3c(/C=C/c4ccccc4)n[nH]c3c2)c1)c1ccccc1 (centres unmarked) [19(i), 6-[3-(2-acetamido-2-phenylacetamido)benzoyl]-3-E-styryl-1H-indazole]

Compound: CCc1cc(O)ccc1-c1ccc2c(-c3nc4ccccc4[nH]3)n[nH]c2c1 [24(e), 3-1H-Benzoimidazol-2-yl-6-(2-ethyl-4-hydroxyphenyl)-1H-indazole]
inhibition at 1 µM (human CHK1 (FL-CHK1); Table 2, compound concentration 1 µM, NI = no significant inhibition): 75% | inhibition at 1 µM [3]: 52%

Compound: Oc1ccc(-c2ccc3c(-c4nc5ccccc5[nH]4)n[nH]c3c2)c(O)c1 [24(f), 3-1H-Benzoimidazol-2-yl-6-(2,4-dihydroxyphenyl)-1H-indazole]
inhibition at 1 µM (human CHK1 (FL-CHK1)): 97% | inhibition at 1 µM [3]: 89%

FLVK ** (% inhibition) [4]: 44%
Compound: NNC(=O)c1ccccc1Sc1ccc2c(C=Cc3ccccn3)n[nH]c2c1 [35(il)]

Compound: CCOc1cc(-c2ccc3c(/C=C/c4ccccc4)n[nH]c3c2)ccc1O [Reference Example 27(h), 6-[3-ethoxy-4-hydroxyphenyl]-3-E-styryl-1H-indazole]
inhibition at 1 µM (CDK1; [8]): 84%

Compound: OCCOc1cc(-c2ccc3c(/C=C/c4ccccc4)n[nH]c3c2)ccc1O [Reference Example 27(i), 6-[3-(2-hydroxyethoxy)-4-hydroxyphenyl]-3-E-styryl-1H-indazole]
inhibition at 1 µM (CDK2/Cyclin A complex): 73% | inhibition at 1 µM (CDK1; [8]): 85% | inhibition at 1 µM (CDK4/Cyclin D3 complex): 92%

Compound: Oc1cccc(-c2ccc3c(/C=C/c4ccccc4)n[nH]c3c2)c1 [Reference Example 28(a), 6-(3-hydrophenyl)-3-E-styryl-1H-indazole]
inhibition at 1 µM (CDK2/Cyclin A complex): 75% | inhibition at 1 µM (CDK1; [8]): 77% | inhibition at 1 µM ([2]; read-out: FLVK* (% inhibition)): 84% | inhibition at 1 µM (CDK4/Cyclin D3 complex): 79%

Compound: Oc1ccc(-c2ccc3c(/C=C/c4ccccc4)n[nH]c3c2)cc1O [Reference Example 28(d), 6-(3,4-dihydroxyphenyl)-3-E-styryl-1H-indazole]
inhibition at 1 µM (CDK2/Cyclin A complex): 66% | inhibition at 1 µM (CDK1; [8]): 93% | inhibition at 1 µM (CDK4/Cyclin D3 complex): 87%

Compound: Clc1ccc(/C=C/c2n[nH]c3cc(-c4ccncc4)ccc23)cc1 [Reference Example 29(c)]
inhibition at 1 µM (CDK1; read-out: CDK1* (% inhibition), Table 3): 56%

Compound: Cc1nc(/C=C/c2n[nH]c3cc(-c4ccncc4)ccc23)cs1 [Reference Example 29(j), 6-pyrid-4-yl-3-E-[2-(2-methylthiazol-4-yl)ethenyl]-1H-indazole]
inhibition at 1 µM (CDK1; [8]): 31%

Compound: Fc1cc(F)cc(/C=C/c2n[nH]c3cc(-c4ccncc4)ccc23)c1 [Reference Example 29(m), 6-pyrid-4-yl-3-E-[2-(3,5-difluorophenyl)ethenyl]-1H-indazole]
inhibition at 1 µM (CDK1; [8]): 54%

Compound: FC(F)(F)Oc1cccc(/C=C/c2n[nH]c3cc(-c4ccncc4)ccc23)c1 [Reference Example 29(p), 6-pyrid-4-yl-3-E-[2-(3-trfluorometboxyphenyl)ethenyl]-1H-indazole]
inhibition at 1 µM (CDK1; [8]): 6%

Compound: CNC(=O)c1ccccc1Sc1ccc2c(/C=C/c3ccccn3)n[nH]c2c1 [Reference Example 33(a), 6-[2-(methylcarbamoyl)phenylsulfanyl]-3-E[2-(pyridin-2-yl)ethenyl]indazole]
inhibition at 1 µM (human FAK (FAKcd409)): 12% | % remain (HLM, 2 h) (in vitro; human, microsomes, 5 µM): 29% | AUC (in vivo; ip, 25 mg/kg): 13800 ng·h/mL | AUC (in vivo; po, 50 mg/kg): 19100 ng·h/mL | inhibition at 0.05 µM [3]: 42% | inhibition at 1 µM (CDK4/Cyclin D3 complex): 7%

Compound: O=C(NC1CC1)c1ccccc1Sc1ccc2c(/C=C/c3ccccn3)n[nH]c2c1 [Reference Example 33(e), 6-[2-(cyclopropylcarbamoyl)phenylsulfanyl]-3-E-[2-(pyridin-2-yl)ethenyl]-1H--1H-indazole]
inhibition at 1 µM (human FGF-R1): 68% | inhibition at 1 µM (LCK tyrosine kinase): 2% | IC50 [5, 9]: 5 nM | IC50 ([5]; read-out: HUVEC IC50): 0.46 nM | % remain (HLM, 2 h) (in vitro; [10]): 54% | % Inhibition ([6]; Model P8, intravitreal, 5 mg/ml): 22% | inhibition at 0.05 µM [3]: 70%

Compound: O=C(Nc1ccc(N2CCNCC2)c(C(F)(F)F)c1)c1ccccc1Sc1ccc2c(/C=C/c3ccccc3)n[nH]c2c1 [Reference Example 38(b), 6-[2-((4-piperizin-1-yl-3-trifluoromethylphenyl)carbamoyl)phenylsulfanyl]-3-E-(2-styryl)-1H-indazole]
IC50 ([5]; read-out: HUVEC IC50): 79 nM | inhibition at 0.05 µM [3]: 72%

Compound: C/C=C/C(=O)Nc1cccc(C(=O)c2ccc3c(/C=C/c4ccccn4)n[nH]c3c2)c1 [Reference Example 41(c), 6-(3-crotonylamidobenzoyl)-3-E-[2-(pyridio-2-yl)ethenyl]-1H-indazole]
inhibition at 1 µM (human FGF-R1): 77% | inhibition at 1 µM (LCK tyrosine kinase): 36% | IC50 [5, 9]: 5.3 nM | IC50 ([5]; read-out: HUVEC IC50): 0.4 nM | % remain (HLM, 2 h) (in vitro; [10]): 68% | inhibition at 0.05 µM [3]: 83%

Compound: O=C(Cc1cc(F)cc(F)c1)Nc1cccc(C(=O)c2ccc3c(/C=C/c4ccccn4)n[nH]c3c2)c1 [Reference Example 41(f), 6-[3-(3,5-difluorophenylacetamido)benzoyl]-3-E-[2-(pyridin-2-yl)ethenyl]-1H-indazole]
inhibition at 1 µM (human FGF-R1): 92% | inhibition at 1 µM (LCK tyrosine kinase): 65% | % remain (HLM, 2 h) (in vitro; [10]): 59% | inhibition at 0.05 µM [3]: 84%

Compound: O=C(Nc1cccc(C(=O)c2ccc3c(/C=C/c4ccccn4)n[nH]c3c2)c1)c1ccccc1 [Reference Example 42(a), 6-(3-Benzamidobenzoyl)-3-E-[2-(pyridin-2-yl)ethenyl]-1H-indazole]
IC50 [5, 9]: […] | IC50 [1]: 5500 nM | % remain (HLM, 2 h) (in vitro; [10]): 92% | % Inhibition ([6]; Model P6-P10, IP*): 61% | % Inhibition ([6]; Model P9, intravitreal, 10 mg/ml): 55% | % Inhibition ([7]; 1 mg/ml): 1% | Initial Evaluation ([7]; 1 mg/ml): + (one plus being detectable regression judged to be approximately 25 percent or less) | % Inhibition ([7]; 10 mg/ml): 23% | inhibition at 0.05 µM [3]: 79%

— patent EP1614683B1, “Indazole compounds and pharmaceutical compositions for inhibiting protein kinases, and methods for their use” (priority 1999, dated 2001)
